Assay results as given in patent US20160002643A1, “Compositions And Methods To Enhance Protein Expression” (priority 2014, published 2016).
“Also recorded” adds a separate entry of the source.

Key:
[1] = system: induction of co-transfected genes by pLKO.1c; test: Drug inhibition experiments on pLKO.1c induction of co-transfected genes; type: cell-based; conditions: p38 inhibitor 10 μM 24 hr; Mnk1 inhibitor 2 nM 40 hr
Protocol: The Mnk1 inhibitor (Calbiochem) was added at 2 nM for 40 hr, and the p38 inhibitor (SB203580) was added at 10 μM for 24 hr prior to harvesting transfections.

[2] = system: EGFP, ER-mCherry or mCherry expression in 293 cells; test: FACS / fluorescence analysis of co-transfected EGFP and mCherry expression; type: cell-based, human; conditions: 2.5 ng EGFP expression plasmid
Protocol: The average mean fluorescence and range of duplicate transfections of 5 μg of pLKO.1c or pLKΔHP plasmids into 293 cells was determined in the presence or absence of the indicated amount of pEGFP vector relative to the pcDNA control. […]
Calcium phosphate transfection of 293 cells was performed in triplicate with 5 μg of the pTRE plasmids and 1 μg of the transactivator as indicated. All cells were incubated with 300 ng/ml DOX at 7 hr post-transfection prior to FACS analysis at 48 hr. The mean and standard deviations of triplicates are reported relative to pTRE3G-BI-mCherry in the absence of transactivator. All values (lanes 2, 3, and 4) were highly statistically significant (p<0.0001) relative to values from lane 1 as was lane 3 relative to 4.
Transfections were performed as in panel B except that samples without the pTRE plasmids were included (pcDNA3). All transfections contained 2.5 ng of the EGFP expression plasmid. Without the transactivator, pTRE-Psi-sh elevated GFP expression ˜10-fold compared to pcDNA3 (p<0.0001; lanes 5 and 1) and ˜6-fold compared to pTRE-3G-BI-mCherry (p<0.0001; lanes 5 and 3). […]

C[S+]([O-])c1ccc(-c2nc(-c3ccncc3)c(-c3ccc(F)cc3)[nH]2)cc1 (stereo not drawn) [SB203580]
effect of inhibitor on induction of co-transfected genes by pLKO.1c [1]: no effect

pMT2: adenoviral gene containing plasmid on a pBR322 backbone expressing Ad VA-RNA I, SEQ ID NO:07
super-induction of co-transfected GFP/EGFP (in words) [2]: showed super-induction of GFP; also recorded: comparable to super-induction of GFP by pLKO.1e

Nc1ncnc2n[nH]c(Nc3ccc(F)cc3)c12 [CGP57380]
effect of inhibitor on induction of co-transfected genes by pLKO.1c [1]: no observable effect
